One data set relates to human MGMT^P140K. Put plainly: Anti-human MGMT^P140K immune responses under adaptive immunosuppression. The format is in vivo, rhesus macaques. The following applies: fully immunocompetent animals.
Data set [1] can be described thus: Tolerability, physical health, hematology and blood chemistry in the NHP in vivo HSC gene therapy study. The arrangement: species or system rhesus macaques. The following applies: NHP #2, given through a gastric catheter over 5 days; day 3 after HDAd injection. From the text:
NHP #1 received a donor vector containing two payload modules: i) a transposon module for random integration into host cell genomes of a human γ-globin gene operably linked with a mini-β-globin LCR, together with an MGMT^P140K selection marker operably linked with an EF1α promoter, and ii) a CRISPR/Cas9 module for CRISPR/Cas9-mediated reactivation of endogenous rhesus γ-globin expression (FIG. 8B). This combination donor vector was co-injected with a support vector that expresses an activity-enhanced Sleeping Beauty transposase (SB100x) (HDAd-SB), activity of which mediates γ-globin gene addition by integration of the transposon into host cell genomes and triggers the destruction of the CRISPR/Cas9 module thus restricting the duration of the CRISPR/Cas9 system's expression and activity (FIG. 8B). […] The vector injected into NHP #3 was similar to the NHP #1 vector but encoded rhesus γ-globin instead of human γ-globin to minimize immune responses against transgene products in the NHP (FIG. 8D).
None of the three animals had detectable anti-vector antibodies at the time of enrollment. Unexpectedly, NHP #1 acquired antibodies during quarantine (titer 1:680). NHP #1 and #3 were monitored for 6 months. […] Despite this, a set of relevant data could be collected from this animal. […]

The next data set has as its system IL-6. Briefly: Rhesus serum cytokine levels by cytometric bead array after IV HDAd5/35++ (IL-6). It counts as in vivo, rhesus macaques. To be noted: NHPs; measured by IL-6 and/or TNF levels. From the text: FIGS. 12A-12E. […] (FIGS. 12A-12C) Serum IL-6. (FIGS. 12D, 12E) Serum TNFα.
FIG. 29. […] Serum IL-6 (pg/mL) levels are shown for NHP #4. […] Arrows indicate administration of adenoviral vector.
FIG. 31. […] Serum IL-6 (pg/mL) levels are shown for NHP #5. […] Arrows indicate administration of adenoviral vector.
Serum cytokines returned back to baseline by 24 hrs.

From the text for human MGMT^P140K: Serum antibody (IgG and IgM) titers against recombinant human MGMT protein in NHP #3 (FIG. 18A) and NHP #1 (FIG. 18B).
To suppress adaptive immune responses, NHP #1 received daily tacrolimus/sirolimus/MMF. […] For NHP #3, it was therefore decided to administer only tacrolimus (SC) as this had been sufficient in myelo-ablated/-conditioned rhesus macaques.

Consider `C=CC[C@@H]1/C=C(\C)C[C@H](C)C[C@H](OC)[C@H]2O[C@@](O)(C(=O)C(=O)N3CCCC[C@H]3C(=O)O[C@H](/C(C)=C/[C@@H]3CC[C@@H](O)[C@H](OC)C3)[C@H](C)[C@@H](O)CC1=O)[C@H](C)C[C@@H]2OC` [tacrolimus], for which, in the data set on human MGMT^P140K, the “control of anti-human MGMT^P140K antibodies (and T-cell responses)” value is listed as “did not prevent”. For the same compound, the outcome of overdose in data set [1] is reported as “had to be euthanized”. “anakinra: engineered human IL-1 receptor antagonist (IL-1Ra), recombinant non-glycosylated protein, SEQ ID NO: 1”: in the data set on IL-6, the “innate immune response to HDAd5/35++” value is “potent agent for suppressing in vivo immune responses”.

Values taken from patent US20230133243A1, “CONDITIONING REGIMENS FOR IN VIVO GENE THERAPY” (Fred Hutchinson Cancer Center, priority 2020, published 2023).
